Measured values reported in ChEMBL document CHEMBL1201862, “PubChem BioAssay data set” (2004).
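Interpolation was linear, between the two tested concentrations surrounding the appropriate level; five concentrations were tested over 48 hours in 96-well plates. GI50 marks 50% less growth.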 Calls of active or inactive are those of the source. No stated cut-off is given here; in the data, active = GI50 up to about 1.1 µM and inactive = higher.

Columns and labels:
Test in all cases: inhibition of tumour cell growth, NCI panel, 48 h
LOX IMVI = tested on: LOX IMVI
OVCAR-5 = tested on: OVCAR-5
SNB-75 = tested on: SNB-75
SF-295 = tested on: SF-295
HOP-92 = tested on: HOP-92
CAKI-1 = tested on: CAKI-1
OVCAR-4 = tested on: OVCAR-4
HCT-15 = tested on: HCT-15
MOLT-4 = tested on: MOLT-4
HCT-116 = tested on: HCT-116
SK-MEL-5 = tested on: SK-MEL-5
EKVX = tested on: EKVX
786-0 = tested on: 786-0
SF-539 = tested on: SF-539
T47D = tested on: T47D
NCI-H522 = tested on: NCI-H522
MCF7 = tested on: MCF7
OVCAR-8 = tested on: OVCAR-8
COLO 205 = tested on: COLO 205
MDA-MB-435 = tested on: MDA-MB-435

Row | SMILES | GI50 (LOX IMVI) | GI50 (OVCAR-5) | GI50 (SNB-75) | GI50 (SF-295) | GI50 (HOP-92) | GI50 (CAKI-1) | GI50 (OVCAR-4) | GI50 (HCT-15) | GI50 (MOLT-4) | GI50 (HCT-116) | GI50 (SK-MEL-5) | GI50 (EKVX) | GI50 (786-0) | GI50 (SF-539) | GI50 (T47D) | GI50 (NCI-H522) | GI50 (MCF7) | GI50 (OVCAR-8) | GI50 (COLO 205) | GI50 (MDA-MB-435)
1 | Cc1ccc(/C=C2\Cc3cccc(C)c3C2=O)c(C(=O)O)c1 | 64.4 µM (inactive) | > 100 µM (inactive) | > 100 µM (inactive) | > 100 µM (inactive) | 17.3 µM (inactive) | 19.9 µM (inactive) | 21.1 µM (inactive) | 39.2 µM | 48.2 µM (inactive) | 72.9 µM (inactive) | 71.1 µM (inactive) | > 100 µM (inactive) | > 100 µM (inactive) | 74.8 µM (inactive) | 42.7 µM (inactive) | 22.3 µM (inactive) | > 10 µM (inactive) | 97.7 µM (inactive) |  | 
2 | Cc1cc(N(CCC#N)CCC#N)ccc1/C=C1N=C(/C=C/c2ccccc2)N(c2ccc(S(N)(=O)=O)cc2)C\1=O | > 100 µM (inactive) | > 100 µM (inactive) | > 100 µM (inactive) | > 100 µM (inactive) | > 100 µM (inactive) | > 100 µM (inactive) | > 100 µM (inactive) | > 100 µM | > 100 µM (inactive) | > 100 µM (inactive) | > 100 µM (inactive) |  | > 100 µM (inactive) | > 100 µM (inactive) |  | > 100 µM (inactive) |  | > 100 µM (inactive) | > 100 µM (inactive) | 
3 | CC1=NN(c2ccccc2)C(=O)C1=C1SCCS1 | 42.6 µM (inactive) | > 100 µM (inactive) | > 88.1 µM (inactive) | > 71.8 µM (inactive) | 37 µM (inactive) | > 78.9 µM (inactive) | > 100 µM (inactive) | 40.9 µM | 15 µM (inactive) | > 48 µM (inactive) | 59.3 µM (inactive) | 47.5 µM (inactive) | > 72.9 µM (inactive) | > 100 µM (inactive) |  | 43 µM (inactive) |  | > 77.6 µM (inactive) | 25.1 µM (inactive) | 
4 | COc1ccc(/C=C\c2cc(OC)c3c(c2)OCO3)c(O)c1O | 4.53 µM (inactive) | 26.7 µM (inactive) | 0.0256 µM (active) | 8.3 µM (inactive) | 5.55 µM (inactive) | 2.79 µM (inactive) | 4.52 µM (inactive) | 11 µM | 6.35 µM (inactive) | 6.95 µM (inactive) | 2.3 µM (inactive) | 11.7 µM (inactive) | 3.26 µM (inactive) | 2.08 µM (inactive) |  | 1.7 µM (inactive) |  | 5.53 µM (inactive) | 21.2 µM (inactive) | 
5 | CCOP(=O)(OCC)C(C(=O)OC)C(=O)C(=O)Nc1c(C)cc(Br)cc1C (stereo unspecified) | > 100 µM (inactive) | > 100 µM (inactive) | > 100 µM (inactive) |  | > 100 µM (inactive) | > 100 µM (inactive) | > 100 µM (inactive) | > 100 µM | > 100 µM (inactive) | > 100 µM (inactive) | > 100 µM (inactive) | > 100 µM (inactive) | > 100 µM (inactive) | > 100 µM (inactive) |  | > 100 µM (inactive) |  | > 100 µM (inactive) | > 100 µM (inactive) | 
6 | CCCC[S+]([O-])CCC(N)C(=O)O (stereo unspecified) |  | > 100 µM (inactive) | > 100 µM (inactive) | > 100 µM (inactive) |  | > 100 µM (inactive) | > 100 µM (inactive) | > 100 µM | > 100 µM (inactive) | > 100 µM (inactive) | > 100 µM (inactive) | > 100 µM (inactive) | > 100 µM (inactive) | > 100 µM (inactive) | > 100 µM (inactive) | > 100 µM (inactive) | > 100 µM (inactive) | > 100 µM (inactive) | > 100 µM (inactive) | 
7 | CCCN(CCC)C(=S)N/N=C/c1cccc(C)n1 | 0.141 µM (active) | < 0.01 µM (active) | 0.261 µM (active) | 0.258 µM (active) | 0.391 µM (active) | 0.382 µM (active) | < 0.01 µM (active) | 0.0438 µM | < 0.01 µM (active) | < 0.01 µM (active) | 0.129 µM (active) | 0.552 µM (active) | 0.0237 µM (active) | 0.214 µM (active) |  | 0.0194 µM (active) | < 0.01 µM (active) | 0.0217 µM (active) | < 0.01 µM (active) | 0.521 µM (active)
8 | O=C(O)CNS(=O)(=O)c1ccc(NCc2ccccc2)cc1 | > 100 µM (inactive) | > 100 µM (inactive) | > 100 µM (inactive) |  | > 100 µM (inactive) | > 100 µM (inactive) | > 100 µM (inactive) | > 100 µM | > 100 µM (inactive) | > 100 µM (inactive) | > 100 µM (inactive) | > 100 µM (inactive) | > 100 µM (inactive) | > 100 µM (inactive) |  | > 100 µM (inactive) |  | > 100 µM (inactive) | > 100 µM (inactive) | 
